# According to PubChem BioAssay (NCI):
#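 Values below derive from 48-hour exposures of cells grown in 96-well plates, with endpoints linearly interpolated between the two concentrations bracketing the appropriate inhibition level. GI50 is the concentration that inhibits growth by half. The concentration for full growth arrest is given as TGI.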
# Key:
# Assay in all cases: growth of human tumour cells (NCI), 48 h
# 786-0 renal = tested on: 786-0 renal
# A498 renal = tested on: A498 renal
# A549 NSCLC = tested on: A549 NSCLC
# ACHN renal = tested on: ACHN renal
# BT-549 breast = tested on: BT-549 breast
# CAKI-1 renal = tested on: CAKI-1 renal
# CCRF-CEM leukemia = tested on: CCRF-CEM leukemia
# COLO 205 colon = tested on: COLO 205 colon
# DU-145 prostate = tested on: DU-145 prostate
# EKVX NSCLC = tested on: EKVX NSCLC
# HCC-2998 colon = tested on: HCC-2998 colon
# HCT-116 colon = tested on: HCT-116 colon
# HCT-15 colon = tested on: HCT-15 colon
# HL-60(TB) leukemia = tested on: HL-60(TB) leukemia
# HOP-62 NSCLC = tested on: HOP-62 NSCLC
# HOP-92 NSCLC = tested on: HOP-92 NSCLC
# HS 578T breast = tested on: HS 578T breast
# HT29 colon = tested on: HT29 colon
# IGROV1 ovarian = tested on: IGROV1 ovarian
# K-562 leukemia = tested on: K-562 leukemia
# KM12 colon = tested on: KM12 colon
# LOX IMVI melanoma = tested on: LOX IMVI melanoma
# M14 melanoma = tested on: M14 melanoma
# MALME-3M melanoma = tested on: MALME-3M melanoma
# MCF7 breast = tested on: MCF7 breast
# MDA-MB-231 breast = tested on: MDA-MB-231 breast
# MDA-MB-435 = tested on: MDA-MB-435
# MOLT-4 leukemia = tested on: MOLT-4 leukemia
# NCI-H226 lung = tested on: NCI-H226 lung
# NCI-H23 lung = tested on: NCI-H23 lung
# NCI-H460 lung = tested on: NCI-H460 lung
# NCI-H522 lung = tested on: NCI-H522 lung
# NCI/ADR-RES ovarian = tested on: NCI/ADR-RES ovarian
# OVCAR-3 ovarian = tested on: OVCAR-3 ovarian
# OVCAR-4 ovarian = tested on: OVCAR-4 ovarian
# OVCAR-5 ovarian = tested on: OVCAR-5 ovarian
# OVCAR-8 ovarian = tested on: OVCAR-8 ovarian
# PC-3 prostate = tested on: PC-3 prostate
# RPMI-8226 leukemia = tested on: RPMI-8226 leukemia
# RXF 393 renal = tested on: RXF 393 renal
# SF-268 CNS = tested on: SF-268 CNS
# SF-295 CNS = tested on: SF-295 CNS
# SF-539 CNS = tested on: SF-539 CNS
# SK-MEL-2 melanoma = tested on: SK-MEL-2 melanoma
# SK-MEL-28 melanoma = tested on: SK-MEL-28 melanoma
# SK-MEL-5 melanoma = tested on: SK-MEL-5 melanoma
# SK-OV-3 ovarian = tested on: SK-OV-3 ovarian
# SN12C renal = tested on: SN12C renal
# SNB-19 CNS = tested on: SNB-19 CNS
# SNB-75 CNS = tested on: SNB-75 CNS
# SR leukemia = tested on: SR leukemia
# SW-620 colon = tested on: SW-620 colon
# T-47D breast = tested on: T-47D breast
# TK-10 renal = tested on: TK-10 renal
# U251 CNS = tested on: U251 CNS
# UACC-257 melanoma = tested on: UACC-257 melanoma
# UACC-62 melanoma = tested on: UACC-62 melanoma
# UO-31 renal = tested on: UO-31 renal
smiles,measurement,setting,value
N=c1ccn2c(n1)O[C@@H]1[C@@H](O)[C@H](CO)O[C@@H]12,GI50,786-0 renal,2.46 µM
same,TGI,786-0 renal,50.3 µM
same,GI50,A498 renal,> 100 µM
same,TGI,A498 renal,> 100 µM
same,GI50,A549 NSCLC,0.41 µM
same,TGI,A549 NSCLC,> 100 µM
same,GI50,ACHN renal,1.45 µM
same,TGI,ACHN renal,> 100 µM
same,GI50,BT-549 breast,41.3 µM
same,TGI,BT-549 breast,> 100 µM
same,TGI,CAKI-1 renal,> 100 µM
same,GI50,CCRF-CEM leukemia,0.0773 µM
same,TGI,CCRF-CEM leukemia,> 100 µM
same,GI50,COLO 205 colon,2.41 µM
same,TGI,COLO 205 colon,> 100 µM
same,GI50,DU-145 prostate,2.42 µM
same,TGI,DU-145 prostate,> 100 µM
same,GI50,EKVX NSCLC,> 100 µM
same,TGI,EKVX NSCLC,> 100 µM
same,GI50,HCC-2998 colon,21.2 µM
same,TGI,HCC-2998 colon,> 100 µM
same,GI50,HCT-116 colon,0.519 µM
same,TGI,HCT-116 colon,> 100 µM
same,GI50,HCT-15 colon,11.4 µM
same,TGI,HCT-15 colon,> 100 µM
same,GI50,HL-60(TB) leukemia,8.41 µM
same,TGI,HL-60(TB) leukemia,> 100 µM
same,GI50,HOP-62 NSCLC,0.783 µM
same,TGI,HOP-62 NSCLC,23 µM
same,GI50,HOP-92 NSCLC,9.94 µM
same,TGI,HOP-92 NSCLC,> 100 µM
same,GI50,HS 578T breast,> 100 µM
same,TGI,HS 578T breast,> 100 µM
same,GI50,HT29 colon,17 µM
same,TGI,HT29 colon,> 100 µM
same,GI50,IGROV1 ovarian,11 µM
same,TGI,IGROV1 ovarian,> 100 µM
same,GI50,K-562 leukemia,> 100 µM
same,TGI,K-562 leukemia,> 100 µM
same,GI50,KM12 colon,27.3 µM
same,TGI,KM12 colon,> 100 µM
same,GI50,LOX IMVI melanoma,6.97 µM
same,TGI,LOX IMVI melanoma,> 100 µM
same,GI50,M14 melanoma,0.428 µM
same,TGI,M14 melanoma,3.39 µM
same,GI50,MALME-3M melanoma,2.57 µM
same,TGI,MALME-3M melanoma,> 100 µM
same,GI50,MCF7 breast,0.234 µM
same,TGI,MCF7 breast,> 100 µM
same,GI50,MDA-MB-231 breast,> 100 µM
same,TGI,MDA-MB-231 breast,> 100 µM
same,GI50,MDA-MB-435,4.13 µM
same,TGI,MDA-MB-435,> 100 µM
same,GI50,MOLT-4 leukemia,0.161 µM
same,TGI,MOLT-4 leukemia,> 100 µM
same,GI50,NCI-H226 lung,3.52 µM
same,TGI,NCI-H226 lung,> 100 µM
same,GI50,NCI-H23 lung,1.09 µM
same,TGI,NCI-H23 lung,> 100 µM
same,GI50,NCI-H460 lung,0.446 µM
same,TGI,NCI-H460 lung,> 100 µM
same,GI50,NCI-H522 lung,0.294 µM
same,TGI,NCI-H522 lung,> 100 µM
same,GI50,NCI/ADR-RES ovarian,2.08 µM
same,TGI,NCI/ADR-RES ovarian,> 100 µM
same,TGI,OVCAR-3 ovarian,> 100 µM
same,GI50,OVCAR-4 ovarian,10.4 µM
same,TGI,OVCAR-4 ovarian,> 100 µM
same,GI50,OVCAR-5 ovarian,49.3 µM
same,TGI,OVCAR-5 ovarian,> 100 µM
same,TGI,OVCAR-8 ovarian,> 100 µM
same,GI50,PC-3 prostate,7.57 µM
same,TGI,PC-3 prostate,> 100 µM
same,GI50,RPMI-8226 leukemia,> 100 µM
same,TGI,RPMI-8226 leukemia,> 100 µM
same,GI50,RXF 393 renal,18.1 µM
same,TGI,RXF 393 renal,> 100 µM
same,GI50,SF-268 CNS,4.8 µM
same,TGI,SF-268 CNS,> 100 µM
same,GI50,SF-295 CNS,16.2 µM
same,TGI,SF-295 CNS,> 100 µM
same,GI50,SF-539 CNS,63.9 µM
same,TGI,SF-539 CNS,> 100 µM
same,GI50,SK-MEL-2 melanoma,15.8 µM
same,TGI,SK-MEL-2 melanoma,> 100 µM
same,GI50,SK-MEL-28 melanoma,4.89 µM
same,TGI,SK-MEL-28 melanoma,> 100 µM
same,GI50,SK-MEL-5 melanoma,15.5 µM
same,TGI,SK-MEL-5 melanoma,> 100 µM
same,GI50,SK-OV-3 ovarian,2.85 µM
same,TGI,SK-OV-3 ovarian,> 100 µM
same,GI50,SN12C renal,2.86 µM
same,TGI,SN12C renal,> 100 µM
same,GI50,SNB-19 CNS,1.44 µM
same,TGI,SNB-19 CNS,> 100 µM
same,GI50,SNB-75 CNS,1.58 µM
same,TGI,SNB-75 CNS,47.6 µM
same,GI50,SR leukemia,0.962 µM
same,TGI,SR leukemia,21 µM
same,GI50,SW-620 colon,4.59 µM
same,TGI,SW-620 colon,> 100 µM
same,GI50,T-47D breast,8.96 µM
same,TGI,T-47D breast,> 100 µM
same,GI50,TK-10 renal,> 100 µM
same,TGI,TK-10 renal,> 100 µM
same,GI50,U251 CNS,6.89 µM
same,TGI,U251 CNS,> 100 µM
same,GI50,UACC-257 melanoma,35 µM
same,TGI,UACC-257 melanoma,> 100 µM
same,GI50,UACC-62 melanoma,4.93 µM
same,TGI,UACC-62 melanoma,> 100 µM
same,GI50,UO-31 renal,1.31 µM
same,TGI,UO-31 renal,20.8 µM
